In patent US20060217305A1, “Induction of tumor cell senescence by retinoid receptor agonists and antagonists” (Ordway Research Institute, Inc., priority 2005, published 2006):
“Also recorded” adds a separate entry of the source. Like-named read-outs stand apart in the source and are kept apart here.

Experiments:
Type in all cases: cell-based, human
MCF-7 cells [1] = experiment: senescence-associated β-galactosidase (SA-β-gal) positive cells; conditions: 7-day treatment (FIG. 3 legend: 8 days); concentrations as in FIG. 2
From the text: The bars represent percentages of SA-β-gal+ cells after 8 days of treatment with the indicated compounds (in triplicate). The compounds were used at the same concentrations as in FIG. 2.
(§1) To test this, we have analyzed the effects of different compounds on the growth of MCF-7 cells, as measured by the cell number after 7 days exposure to the compounds (FIG. 2) and on the fraction of cells expressing the senescence-associated β-galactosidase activity (SA-β-gal), a marker of senescence, after 7-day treatment with the compounds (FIG. 3).

MCF-7 cells [2] = experiment: MCF-7 cell growth, cell number after 7 days; conditions: 100 nM RA, LGD1550, LGD1268, 10 μM LG100815, LG101208
Experimental: The bars represent cell number after 7 days of culture with the addition of DMSO (control), 100 nM RA, 100 nM RAR agonist LGD1550, 100 nM RXR agonist LGD1268, 10 μM RAR antagonist LG100815, and 10 μM RXR antagonist LG101208. Experiments were done in triplicate, and the results are expressed relative to the average of the control.
as §1

[3] = tested on: retinoid-inducible genes EPLIN, UBD, IGFBP3, TGFB1 and TRIM31 in MCF-7 cells (subline MCF-7 3′SS6); experiment: real-time RT-PCR (QPCR) of retinoid-inducible gene expression, 2 days treatment; conditions: for Fold induction EPLIN / Fold induction IGFBP3 / Fold induction TGFBI / Fold induction TRIM31 / Fold induction UBD / fold induction at 0.1 µM: 2 days, MCF-7; for fold induction at 0.1 µM: Homo sapiens, MCF7, 48 h
From the text: The following compounds were obtained from Ligand Pharmaceuticals (San Diego, Calif.). LGD1550 is a pan-RAR agonist. LGD1268 is a pan-RXR agonist. LG100815 is a pan-RAR antagonist. LG101208 is a pan-RXR antagonist. The LG100815 compound is a specific RAR antagonist that binds to RAR, but fails to activate its Retinoic Acid Responsive Element (RARE)-dependent transcription transactivation function (see Lee et al, Mol. Cell Biol. 19: 1973-1980 (1999)). Also used was all-trans retinoic acid (RA), the most commonly used RAR agonist. To determine how these compounds affect the expression of retinoid-inducible growth inhibitory genes EPLIN, UBD, IGFBP3 and TGFB1, as well as TRIM31 gene that contains a putative RARE element in its promoter, MCF-7 cells (subline MCF-7 3′SS6) were treated with individual compounds or their combinations for 2 days, and RNA was extracted by standard procedures. In the initial assays, gene expression was analyzed by semi-quantitative reverse transcription-PCR (RT-PCR), as described in Dokmanovic et al., Cancer Biology & Therapy 1:24-27 (2002). In subsequent assays, the initial results were confirmed, expanded and quantitated by real-time RT-PCR (QPCR), using Applied BioSystems 7900HT real-time PCR instrument. β-actin was used as a normalization standard.
cDNA was prepared by reverse transcription with random primer using 4 μg total RNA. 5 μl SYBR Green PCR Master Mix (Applied Biosystems) was mixed with […] cDNA and 0.8 pmol of gene-specific primers and brought up to 10 μl with ultra pure H2O in 384-well optical plates. For amplification, reaction mixtures were heated for 2 min at 50° C. and 10 min at 95° C., followed by 40 cycles of two-step PCR consisting of 15 sec at 95° C. and 1 min at 60° C., to construct dissociation curves and verify that single PCR products were obtained. PCR products were also analyzed by gel electrophoresis to confirm that a single product of the expected size was amplified. […] The comparative CT method for relative quantitation of gene expression described by Applied Biosystems was used to determine expression levels for target genes. Experiments were carried out in triplicate for each data point. Sequence Detection Systems software version 2.1 (Applied Biosystems) and Microsoft Excel were used for data analysis.

[4] = tested on: DR5 RARE-containing promoter in MCF-7 cells; experiment: DR5-luciferase transient transfection assay (RARE-dependent transcription); conditions: 100 nM, 24 hrs
Experimental: The assays were carried out in triplicate. RA is all-trans retinoic acid. LGD1550 is a pan-RAR agonist. LG100815 is a pan-RAR antagonist.
To confirm the ability of LG100815 to antagonize RARE-dependent induction of transcription analysis of firefly luciferase expression from a RARE-containing artificial promoter DR5 (Stratagene, catalog number 240119) was performed. Cells were plated to the density of 3×10^5 in P60 24 hrs before transient transfection. DR5 reporter plasmid (4 μg) was mixed with the SV40-driven-Renilla luciferase control plasmid (0.04 μg) and transfected using Lipofectamine Plus (Life Technologies/Invitrogen, Carlsbad, Calif.) as described by the manufacturer. 3 hrs after transfection, cells were rinsed three times with PBS, trypsinized and replated in a 12-well plate to the density of 5×10^4 cells per well. Retinoid agonists and antagonists were added 48 hrs later, and the luciferase assay was performed after another 24 hrs.

`Cc1cc2c(cc1C1(c3ccc(C(=O)O)cn3)CC1)C(C)(C)CCC2(C)C` [LGD1268] was tested, and the “induction of senescent phenotype (SA-β-gal+ cells)” value (MCF-7 cells [1]) was “did not induce the senescent phenotype”, the “effect on MCF-7 cell growth (cell number)” value (MCF-7 cells [2]) was “did not inhibit cell growth; also recorded: modest but reproducible increase in cell growth” and the “Fold induction EPLIN” value ([3]; 100 nM) was 1.2 ± 0.2 fold. For the same molecule, the “Fold induction IGFBP3” value ([3]; 100 nM) was 1.2 ± 0.5 fold, the “Fold induction TGFBI” value ([3]; 100 nM) was 1.9 ± 1.1 fold and the “Fold induction TRIM31” value ([3]; 100 nM) was 1.3 ± 0.4 fold. For the same molecule, the “Fold induction UBD” value ([3]; 100 nM) was 1.0 ± 0.1 fold, the “Fold induction EPLIN” value ([3]; 1 μM) was 1.0 ± 0.1 fold and the “Fold induction IGFBP3” value ([3]; 1 μM) was 0.9 ± 1.1 fold. The “Fold induction TGFBI” value ([3]; 1 μM) was 2.2 ± 1.0 fold, the “Fold induction TRIM31” value ([3]; 1 μM) was 1.4 ± 0.7 fold and the “Fold induction UBD” value ([3]; 1 μM) was 0.8 ± 0.2 fold. For the same molecule, the “Fold induction EPLIN” value ([3]; 10 μM) was 1.4 ± 0.2 fold, the “Fold induction IGFBP3” value ([3]; 10 μM) was 1.2 ± 0.4 fold and the “Fold induction TGFBI” value ([3]; 10 μM) was 2.4 ± 0.3 fold. The “Fold induction TRIM31” value ([3]; 10 μM) was 3.8 ± 0.7 fold, the “Fold induction UBD” value ([3]; 10 μM) was 1.0 ± 0.2 fold and the “effect on expression of the five genes (IGFBP3, EPLIN, UBD, TGFB1, TRIM31)” value ([3]; summary of Table 2, MCF-7) was “induced only one of five genes (TGFB1)”.
In the case of `CC1=C(/C=C/C(C)=C/C=C/C(C)=C/C(=O)O)C(C)(C)CCC1` [RA, all-trans retinoic acid], the “induction of luciferase expression from DR5 RARE-containing promoter” value [4] is reported as “approximately 50 fold”, the “ratio of the fold-induction of TGFB1 relative to TRIM31” value ([3]; 100 nM) is reported as 0.19 and the fold induction at 0.1 µM ([3]; 100 nM, read-out: Fold induction EPLIN) is reported as 3.1 ± 0.7. It also gave a fold induction at 0.1 µM ([3]; 100 nM, read-out: Fold induction IGFBP3) of 2.5 ± 0.5, a fold induction at 0.1 µM ([3]; 100 nM, read-out: Fold induction TGFBI) of 6.5 ± 1.4 and a fold induction at 0.1 µM ([3]; 100 nM, read-out: Fold induction TRIM31) of 34.4 ± 3.9. For the same molecule, the fold induction at 0.1 µM ([3]; 100 nM, read-out: Fold induction UBD) was 8.5 ± 2.8.
